The values that follow come from patent publication US12569508B2, “Antimicrobial compositions and methods of use” (priority 2020, dated 2026).

One data set relates to P. aeruginosa (PAO1). Kind of data set: C. elegans PAO1 infection model. Format: in vivo, Caenorhabditis elegans. The method, then:
For the infection study, an overnight culture of P. aeruginosa (PAO1) was diluted to an OD of 0.1 and 200 μL was seeded onto NGM (50 mM NaCl and 0.35% peptone) agar plates for 12 h at 37° C. After 12 h, the collected L4 stage nematodes were incubated on PAO1 seeded agar plates and allowed to feed on the bacteria for 6 h at 25° C. (Uccelletti D et al., 2010, Antimicrobial Agents and Chemotherapy 54(9), 3853-3860). Thereafter, the nematodes were removed from the agar and washed multiple times to remove PAO1 from the outside and the nematodes were split into groups of 20 in OGM medium. Besides the non-treated control, the infected nematodes were treated with various concentrations of tobramycin as an unformulated solution or loaded in MO-LCNPs.
In both the healthy and infected nematodes study, nematodes were assessed as live or dead under a bright field microscopy through either being curled and moving (live) or stiff and non-moving (dead) at 4 h, 24 h and 48 h post treatment. The percentage of live nematodes to the total number of nematodes in the samples was compared to healthy, non-treated controls to compute the % survival.
Following 24 h and 48 h, samples of the nematodes were taken and washed with M9 buffer containing 1 mM sodium azide and then 0.01 M PBS before being counted. The nematodes were then mechanically disrupted via vortex mixing in tubes with 200 mg of 1.0 mm silicon carbide beads (BioSpec Products, Bartleville, OK) for 10 mins (Richter K et al. 2017, Frontiers in Cellular and Infection Microbiology, 7: Article 280). The disrupted nematodes and bacterial suspensions were serial diluted and spot plated on Pseudomonas isolation agar for colony forming units (CFU) counting to determine the CFU per nematode.

A further data set deals with PAO1 biofilm on CFBE41o−. Kind of data set: Chronic infection model CFBE41o− and PAO1: bacterial counts. It counts as cell-based, P. aeruginosa. The method, then: A chronic infection model was developed which cultures P. aeruginosa biofilm on top of the bronchial CF epithelium cells (CFBE41o−) at an air-liquid interface. It is a biologically relevant, 3D model that resembles the infected lungs of CF patients.
To assess the activity and toxicity or formulations, the CFBE41o− cell line was seeded on Transwell® inserts (0.05×10^6) at the liquid-liquid interface (500 μL apical and 1500 μL basolateral) on day 0. On day 3, the apical side media was removed, and the basolateral side was replaced with 500 μL of media. On day 7, the transepithelial electrical resistance (TEER) was measured through adding 500 μL to the apical chamber of one well and replacing the basolateral side with 1500 μL. The transferred biofilm model, described above, was employed to transfer the PAO1 biofilm on top of the CFBE41o− cell line in the apical compartment of the Transwells® on day 7. After 1 h incubation, the supernatant was removed as the biofilm has settled onto the cells.
Using the Aerogen® Pro (vibrating mesh nebuliser) and nebulisation chamber, the treatments were then nebulised on top of the biofilm and CFBE41o− cell layer. TOB as an unformulated solution or loaded in the MO-LCNPs were dosed at 10 μg, which was equivalent to 100 μL of 3.32 mg/mL for unformulated TOB and 2.50 mg/mL for MO-LCNPs loaded with TOB. The treatments were prepared by diluting the stock solution/LCNPs suspension to the required concentration in KRB buffer. Each time the nebuliser was first rinsed with KRB buffer and the Transwell® to be dosed was transfered to a clean 12 well plate. The treatment was nebulised following a 30 second deposition waiting time. After all treatments were dosed, the Transwells® were replaced to their original well that included fresh MEM media supplemented with 1% arginine (500 μL) and incubated for the required time at 37° C.
At the time points 24 h and 48 h, different read outs were obtained, including bacterial counts, viability of cells and barrier integrity. […] The plates were incubated for 18 h at 30° C. before the colonies of bacteria were counted.

The conditions of data set [1]: aerosolised, CF patients; cited from earlier work.
Data set [2] is described as follows: Deposition efficiency after nebulisation (Aerogen Pro vibrating mesh nebuliser). It counts as physicochemical. The note with it: 100 μL nebulised into 24-well plate. The procedure:
The Aerogen® Pro (vibrating mesh nebuliser) connected to a nebuliser chamber was used to aerosolise unformulated solutions of TOB, and LCNPs loaded with TOB. The nebulisation chamber fitted into the well of a 24-well plate, ensuring the dose was deposited into a single well. Before use, the nebuliser was rinsed twice with 0.9% NaCl. Then each formulation of TOB was tested to ensure an even aerosol was produced. 100 μL of TOB as an unformulated solution, and in MO-LCNPs and PHY-LCNPs was nebulised into the wells of a 24-well plate that contained 200 μL of 0.9% sodium chloride. The total drug concentration was then determined from each well to calculate the total mass deposited. […] The nebulised samples were assessed for particle size and zeta potential, as described above.
For the nebulisation samples and transport studies (see below), TOB was quantified by liquid chromatography tandem mass spectrometry (LC-MS) using a Dionex UltiMate 3000 Binary Rapid Separation LC System (Thermo Scientific, USA) coupled with a TSQ Quantum Access Max (QQQ, Thermo Scientific, USA) and a modified ion-pairing method. […] 3 μL of the samples were injected and quantification was done by ESI+ and the SRM of the ion 468.184→323.960.

As a reminder, the bioavailability is dose-corrected exposure relative to a reference, in per cent. On to `NC[C@H]1O[C@H](O[C@H]2[C@H](O)[C@@H](O[C@H]3O[C@H](CO)[C@@H](O)[C@H](N)[C@H]3O)[C@H](N)C[C@@H]2N)[C@H](N)C[C@@H]1O` [unformulated TOB, tobramycin], for which the “survival of infected nematodes” value with P. aeruginosa (PAO1) (24 h, 3 μg/mL) is listed as 13%; in the data set on P. aeruginosa (PAO1) (24 h, 6 μg/mL), 65%; with P. aeruginosa (PAO1) (24 h, 15 μg/mL), 83%; in the data set with P. aeruginosa (PAO1) (24 h, 60 μg/mL), 87%; in the data set on P. aeruginosa (PAO1) (48 h, 3 μg/mL), 7%. Also, the “bacteria killed compared to control” value in the data set on P. aeruginosa (PAO1) (24 h, 15 μg/mL and 60 μg/mL) was 1 log. Further, the PAO1 infection level in the data set with P. aeruginosa (PAO1) (48 h) is reported as around 4 log. The PAO1 surviving with P. aeruginosa (PAO1) (48 h, 60 μg/mL) was 2 log. Moreover, the “average survival of infected nematodes” value with P. aeruginosa (PAO1) (48 h, 6-60 μg/mL) worked out at 65%. Further, the P. aeruginosa remaining in the data set with PAO1 biofilm on CFBE41o− (24 h after nebulisation, biofilm of 4×10^8 CFU/mL) is reported as 7.4×10^3 CFU/mL; with PAO1 biofilm on CFBE41o− (48 h, one nebulised dose), 1.2×10^3 CFU/mL; in the data set with PAO1 biofilm on CFBE41o− (48 h, two nebulised doses), 5.4×10^1 CFU/mL. For the same compound, the bioavailability in data set [1] is reported as 9.13%. Also, in data set [2], the “deposition efficiency of TOB” value is given as 3.25%.
